The results in this text go back to patent publication US20140120087A1, “TRIAZOLOPYRIDINES” (BAYER INTELLECTUAL PROPERTY GMBH, priority 2011, published 2014).

Assay [1] concerns the target T1, Mps-1 kinase (Homo sapiens, UniProt P33981).
T1 sequence (P33981 1-857): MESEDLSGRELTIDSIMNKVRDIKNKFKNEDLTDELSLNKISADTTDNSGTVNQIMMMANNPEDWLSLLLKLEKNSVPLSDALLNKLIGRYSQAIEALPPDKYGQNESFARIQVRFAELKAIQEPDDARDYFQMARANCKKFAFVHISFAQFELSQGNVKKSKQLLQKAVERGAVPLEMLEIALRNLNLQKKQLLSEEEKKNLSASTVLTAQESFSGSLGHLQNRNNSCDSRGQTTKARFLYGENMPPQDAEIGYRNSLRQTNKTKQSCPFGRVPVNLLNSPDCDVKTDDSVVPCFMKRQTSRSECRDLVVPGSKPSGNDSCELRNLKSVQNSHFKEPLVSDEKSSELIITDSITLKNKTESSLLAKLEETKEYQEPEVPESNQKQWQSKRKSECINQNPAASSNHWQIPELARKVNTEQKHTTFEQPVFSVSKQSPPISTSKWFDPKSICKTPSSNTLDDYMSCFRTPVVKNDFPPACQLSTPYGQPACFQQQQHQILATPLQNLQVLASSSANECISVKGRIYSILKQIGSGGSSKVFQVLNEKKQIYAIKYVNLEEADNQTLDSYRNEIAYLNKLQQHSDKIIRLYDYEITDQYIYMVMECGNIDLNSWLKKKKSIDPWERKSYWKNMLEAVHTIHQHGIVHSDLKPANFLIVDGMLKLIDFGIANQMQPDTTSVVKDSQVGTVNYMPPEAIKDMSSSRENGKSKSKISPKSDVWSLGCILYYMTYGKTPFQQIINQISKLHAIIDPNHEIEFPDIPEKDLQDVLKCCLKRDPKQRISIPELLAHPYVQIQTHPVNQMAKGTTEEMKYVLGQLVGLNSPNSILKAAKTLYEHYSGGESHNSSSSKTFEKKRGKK
In words: Mps-1 kinase assay with 10 μM ATP (TR-FRET).

Assay [2] deals with T1, Mps-1 kinase. The experiment in a line: Mps-1 kinase assay with 2 mM ATP (TR-FRET).

By IC50 is commonly meant the point on the concentration scale where inhibition reaches its midpoint.

With `COc1cc([S@@+](C)[O-])c(F)cc1Nc1nc2ccc(-c3ccc(NC(=O)Cc4ccc(F)cc4)cc3)cn2n1` (stereo in doubt) [Example 12.14, N-[4-(2-{[5-fluoro-2-methoxy-4-(methylsulfinyl)-phenyl]amino}[1,2,4]-triazolo[1,5-a]pyridin-6-yl)-phenyl]-2-(4-fluorophenyl)-acetamide], the values for the IC50 against Mps-1 kinase [1] and against Mps-1 kinase [2] were not above 1 nM and 8.5 nM, respectively.

For `Cc1cc(C(=O)NCCF)ccc1Nc1nc2ccc(-c3ccc(C(=O)NCc4ccc(F)cc4)cc3)cn2n1` [Example 12.67, 4-[(6-{4-[(4-fluorobenzyl)-carbamoyl]phenyl}[1,2,4]triazolo [1,5-a]pyridin-2-yl)-amino]-N-(2-fluoroethyl)-3-methylbenzamide], the half-inhibitory concentration (IC50) against Mps-1 kinase [1] is not above 1 nM; against Mps-1 kinase [2], 5 nM.

As to `CCOc1cc(S(=O)(=O)CC)ccc1Nc1nc2ccc(-c3ccc(C(=O)NCc4ccc(F)cc4)cc3)cn2n1` [Example 02.26, 4-(2-{[2-ethoxy-4-(ethylsulfonyl)phenyl]amino}[1,2,4]triazolo[1,5-α]-pyridin-6-yl)-N-(4-fluorobenzyl)benzamide], the IC50 was not above 1 nM against Mps-1 kinase [1] and 6.1 nM against Mps-1 kinase [2].

Turning to `COc1cc(C(=O)NCC(F)F)ccc1Nc1nc2ccc(-c3ccc(C(=O)NCc4ccc(F)cc4)cc3)cn2n1` [Example 12.47, N-(2,2-difluoroethyl)-4-[(6-{4-[(4-fluorobenzyl)-carbamoyl]phenyl}[1,2,4]triazolo [1,5-a]pyridin-2-yl)amino]-3-methoxy-benzamide], the IC50 on Mps-1 kinase [1] is not above 1 nM; against Mps-1 kinase [2], 2.4 nM.

For the compound `COc1cc(C(=O)NCCF)ccc1Nc1nc2ccc(-c3ccc(NC(=O)Cc4ccc(F)cc4)cc3)cn2n1` [Example 12.05, N-(2-fluoroethyl)-4-{[6-(4-{[(4-fluorophenyl)acetyl]-amino}phenyl)[1,2,4]-triazolo[1,5-a]pyridin-2-yl]amino}-3-methoxy-benzamide], the IC50 on Mps-1 kinase [1] and on Mps-1 kinase [2] was not above 1 nM in each case.

Take `CS(=O)(=O)c1ccc(Nc2nc3ccc(-c4ccc(NC(=O)Cc5ccc(F)cc5)cc4)cn3n2)c(OC2CC2)c1` [Example 01.37, N-[4-(2-{[2-(cyclopropyloxy)-4-(methylsulfonyl)phenyl]amino}[1,2,4]-triazolo[1,5-α]pyridin-6-yl)phenyl]-2-(4-fluorophenyl)acetamide]: the half-maximal inhibitory concentration (IC50) against Mps-1 kinase [1] was not above 1 nM; at Mps-1 kinase [2], 1.6 nM.

For `COc1cc(C(=O)NCC(F)(F)F)ccc1Nc1nc2ccc(-c3ccc(C(=O)NCc4ccc(F)cc4F)cc3)cn2n1` [Example 12.79, 4-[(6-{4-[(2,4-difluoro-benzyl)carbamoyl]phenyl}-[1,2,4]triazolo[1,5-a]pyridin-2-yl)amino]-3-methoxy-N-(2,2,2-trifluoro-ethyl)benzamide], the IC50 was not above 1 nM on Mps-1 kinase [1] and 23 nM at Mps-1 kinase [2].

In the case of `Cc1cc(C(N)=O)ccc1Nc1nc2ccc(-c3ccc(C(=O)NCc4ccc(F)cc4)cc3)cn2n1` [Example 12.65, 4-[(6-{4-[(4-fluorobenzyl)-carbamoyl]phenyl}[1,2,4]triazolo [1,5-a]pyridin-2-yl)-amino]-3-methylbenzamide], the half-maximal inhibitory concentration (IC50) on Mps-1 kinase [1] and on Mps-1 kinase [2] was not above 1 nM each time.

For `COc1cc(C(=O)N(C)CCN(C)C)ccc1Nc1nc2ccc(-c3ccc(C(=O)NCc4ccc(F)cc4)cc3)cn2n1` [Example 12.49, N-[2-(dimethylamino)ethyl]-4-[(6-{4-[(4-fluorobenzyl)-carbamoyl]phenyl}[1,2,4]triazolo [1,5-a]pyridin-2-yl)-amino]-3-methoxy-N-methylbenzamide], the IC50 against Mps-1 kinase [1] is not above 1 nM; against Mps-1 kinase [2], 3.4 nM.

Consider `CC(C)(CO)NC(=O)c1ccc(Nc2nc3ccc(-c4ccc(NC(=O)Cc5ccc(F)cc5)cc4)cn3n2)c(OCC(F)(F)F)c1` [Example 12.22, 4-{[6-(4-{[(4-fluorophenyl)-acetyl]amino}phenyl)[1,2,4]triazolo[1,5-a]pyridin-2-yl]amino}-N-(1-hydroxy-2-methylpropan-2-yl)-3-(2,2,2-trifluoroethoxy)benzamide], for which the IC50 on Mps-1 kinase [1] and against Mps-1 kinase [2] was not above 1 nM throughout.

For the compound `COc1cc(S(C)(=O)=O)ccc1Nc1nc2ccc(-c3ccc(NC(=O)Cc4ccc(F)c(C)c4)cc3)cn2n1` [Example 12.40, 2-(4-fluoro-3-methylphenyl)-N-[4-(2-{[2-methoxy-4-(methylsulfonyl)phenyl]-amino}[1,2,4]triazolo[1,5-a]pyridin-6-yl)phenyl]-acetamide], the IC50 is not above 1 nM on Mps-1 kinase [1] and 9.9 nM on Mps-1 kinase [2].

In the case of `CCOc1cc(S(C)(=O)=O)ccc1Nc1nc2ccc(-c3ccc(NC(=O)Cc4ccc(F)cc4)cc3)cn2n1` [Example 01.32, N-[4-(2-{[2-ethoxy-4-(methylsulfonyl)phenyl]amino}[1,2,4]triazolo[1,5-α]-pyridin-6-yl)phenyl]-2-(4-fluorophenyl)acetamide], the IC50 on Mps-1 kinase [1] and against Mps-1 kinase [2] was not above 1 nM in each case.

On to `NC(=O)c1ccc(Nc2nc3ccc(-c4ccc(NC(=O)Cc5ccc(F)cc5)cc4)cn3n2)c(OC(F)(F)F)c1` [Example 12.25, 4-{[6-(4-{[(4-fluorophenyl)-acetyl]amino}phenyl)[1,2,4]triazolo[1,5-a]pyridin-2-yl]amino}-3-(trifluoro-methoxy)benzamide], for which the 50% inhibitory concentration (IC50) is not above 1 nM at Mps-1 kinase [1] and 2.7 nM against Mps-1 kinase [2].

For `CS(=O)(=O)c1ccc(Nc2nc3ccc(-c4ccc(NC(=O)Cc5ccc(F)cc5)cc4)cn3n2)c(OCC(F)(F)F)c1` [Example 01.34, 2-(4-fluorophenyl)-N-[4-(2-{[4-(methylsulfonyl)-2-(2,2,2-trifluoroethoxy)-phenyl]amino}[1,2,4]triazolo[1,5-α]pyridin-6-yl)phenyl]acetamide], the IC50 at Mps-1 kinase [1] and on Mps-1 kinase [2] was not above 1 nM throughout.

With `COc1cc(C(=O)N(C)CCN(C)C)ccc1Nc1nc2ccc(-c3ccc(NC(=O)Cc4ccc(F)cc4)cc3)cn2n1` [Example 12.08, N-[2-(dimethylamino)ethyl]-4-{[6-(4-{[(4-fluorophenyl)-acetyl]amino}phenyl)[1,2,4]triazolo[1,5-a]pyridin-2-yl]amino}-3-methoxy-N-methylbenzamide], the concentration for half-maximal inhibition (IC50) against Mps-1 kinase [1] and at Mps-1 kinase [2] was not above 1 nM each time.

As for `COc1cc(S(C)(=N)=O)ccc1Nc1nc2ccc(-c3ccc(NC(=O)Cc4ccc(F)cc4)cc3)cn2n1` (stereo not drawn) [Example 12.82, 2-(4-fluorophenyl)-N-[4-(2-{[2-methoxy-4-(S-methylsulfonimidoyl)phenyl]-amino}[1,2,4]triazolo[1,5-α]pyridin-6-yl)phenyl]acetamide], the IC50 against Mps-1 kinase [1] and against Mps-1 kinase [2] was not above 1 nM each time.

Regarding `COc1cc(S(C)(=O)=O)ccc1Nc1nc2ccc(-c3ccc(C(=O)NCc4ccc(F)cc4F)cc3)cn2n1` [Example 11.01, N-(2,4-difluorobenzyl)-4-(2-{[2-methoxy-4-(methylsulfonyl)phenyl]amino}-[1,2,4]triazolo[1,5-α]pyridin-6-yl)benzamide], the IC50 was not above 1 nM on Mps-1 kinase [1] and 11 nM on Mps-1 kinase [2].

In the case of `CCOc1cc(C(=O)NCCN(C)C)ccc1Nc1nc2ccc(-c3ccc(C(=O)NCc4ccc(F)cc4)cc3)cn2n1` [Example 12.55, N-[2-(dimethylamino)ethyl]-3-ethoxy-4-[(6-{4-[(4-fluoro-benzyl)carbamoyl]phenyl}-[1,2,4]triazolo[1,5-a]pyridin-2-yl)amino]benzamide], the IC50 against Mps-1 kinase [1] and at Mps-1 kinase [2] was not above 1 nM in each case.

As for `COc1cc(C(=O)N(C)CC(F)(F)F)ccc1Nc1nc2ccc(-c3ccc(NC(=O)Cc4ccc(F)cc4)cc3)cn2n1` [Example 12.09, 4-{[6-(4-{[(4-fluorophenyl)-acetyl]amino}phenyl)[1,2,4]triazolo[1,5-a]pyridin-2-yl]amino}-3-methoxy-N-methyl-N-(2,2,2-trifluoro-ethyl)benzamide], the results for the IC50 at Mps-1 kinase [1] and against Mps-1 kinase [2] were not above 1 nM and 2.5 nM, respectively.

`COc1cc(C(=O)NCCCF)ccc1Nc1nc2ccc(-c3ccc(NC(=O)Cc4ccc(F)cc4)cc3)cn2n1` [Example 12.11, 4-{[6-(4-{[(4-fluorophenyl)-acetyl]amino}phenyl)[1,2,4]triazolo[1,5-a]pyridin-2-yl]amino}-N-(3-fluoro-propyl)-3-methoxybenzamide]: the IC50 was not above 1 nM against Mps-1 kinase [1] and 1.2 nM against Mps-1 kinase [2].

For `Cc1cc(N(C)C)ccc1Nc1nc2ccc(-c3ccc(NC(=O)Cc4ccc(F)cc4)cc3)cn2n1` [Example 12.36, N-[4-(2-{[4-(dimethylamino)-2-methylphenyl]-amino}[1,2,4]triazolo[1,5-a]pyridin-6-yl)phenyl]-2-(4-fluorophenyl)acetamide], the IC50 against Mps-1 kinase [1] is not above 1 nM; on Mps-1 kinase [2] it was 3.5 nM.
